Values quoted from earlier work, collected in patent publication US20080020052A1, “Vascular Embolus Of Paclitaxel-Sodium Alginate Microsphere And Its Preparation” (priority 2004, published 2008).

## CC(=O)O[C@H]1C(=O)[C@@]2(C)[C@H]([C@H](OC(=O)c3ccccc3)[C@]3(O)C[C@H](OC(=O)[C@H](O)[C@@H](NC(=O)c4ccccc4)c4ccccc4)C(C)=C1C3(C)C)[C@]1(OC(C)=O)CO[C@@H]1C[C@@H]2O [Paclitaxel, paclitaxel]
  plasma and protein binding ratio: 89-98%
